Patent publication US20220295793A1 (priority 2019, published 2022)
Read-outs that look alike come from different tables or passages of the source.

What was measured:
cucumber downy mildew = details: R. Zhang, J. Pesticide Sci., vol. 39, no. 1, 2014, pages 43-47; cited from earlier work
Phytophthora infestans = assay type: in vivo; details: tomatoes, preventive spray, evaluated 3 days after inoculation

## COc1c(F)c(F)c(C(=O)NCc2ncc(C(F)(F)F)cc2Cl)c(F)c1F [(B) fluopimomide, N-{[3-chloro-5-(trifluoromethyl)-2-pyridyl]methyl}-2,3,5,6-tetrafluoro-4-methoxybenzamide]
Cucumber downy mildew
  controlling cucumber downy mildew: highly effective
Phytophthora infestans; 2.5 ppm a.i.
  Efficacy in % found: 0%
Phytophthora infestans; 5 ppm a.i.
  Efficacy in % found: 0%
Phytophthora infestans; 10 ppm a.i.
  Efficacy in % found: 0%

## CS(=O)(=O)Oc1cccc(Cl)c1C1CC(c2csc(C3CCN(C(=O)Cn4nc(C(F)F)cc4C(F)F)CC3)n2)=NO1 (racemic) [(A) fluoxapiprolin, 2-{(5RS)-3-[2-(1-{[3,5-bis(difluoromethyl)-1H-pyrazol-1-yl]acetyl}-4-piperidyl)thiazol-4-yl]-4,5-dihydroisoxazol-5-yl}-3-chlorophenyl methanesulfonate]
Phytophthora infestans; 0.02 ppm a.i.
  Efficacy in % found: 54%
Phytophthora infestans; 0.04 ppm a.i.
  Efficacy in % found: 79%
